The numbers were not newly measured in US20030181501A1 (priority 2001, published 2003), which cites them from elsewhere.

For this data set the following is noted: Dionne (1999).

For `Cc1onc(-c2ccccc2)c1-c1ccc(S(N)(=O)=O)cc1` [Valdecoxib, 4-(5-methyl-3-phenyl-4-isoxazolyl)benzenesulfonamide], the Solubility in water result was “extremely low solubility in water”.
